Experimental data reported in patent US6569902B2, “Nitrone inhibition of cancer development” (Oklahoma Medical Research Foundation, priority 2000, dated 2003).
pIC50: −log10 of the molar value.

Key:
[1] = system: livers of male Wistar rats fed the CDAA diet; assay: Example 2: oxidative hepatocyte injuries (8-OHdG, TBARS); type: in vivo, rat
Source text: Animal experiment. After acclimation, rats were divided equally into 22 groups consisting of 5 animals each. Animals in group 1 received the CDAA diet alone. […] Groups 5-7, 8-10, 11-13 and 14-16 received the CDAA diet containing the low, middle, and high doses of 4-OHPBN, 3-OHPBN, 2-OHPBN and 2-SPBN, respectively. Group 17 received the CSAA diet alone. […] All animals were sacrificed by exsanguination under light ether anesthesia 16 weeks after commencement, and the livers excised. Slices 5-mm-thick were taken from the left lateral, median and right lateral lobes of the livers, fixed in 10% neutrally-buffered formalin for 24 hours and then embedded in paraffin. Five serial 4-μm-thick sections were prepared from each fixed liver slice and used for histological and immunohistochemical assessment as described below. The remaining portions of the livers were immediately frozen under liquid nitrogen and stored at −80° C. until use.
Determination of oxidative hepatocyte injuries. Levels of oxidative damage to the hepatocytes were determined on frozen liver samples. Oxidative damage to nuclear DNA was assessed as previously described, using the amount of 8-hydroxydeoxyguanosine (8-OHdG) to 10^6 deoxyguanosine (dG) ratio as a parameter (Nakae et al. 1995). Oxidative injury to extra-nuclear components was assessed as described elsewhere, by determining picomole malondialdehyde equivalent (MDA eq.) levels of 2-thiobarbituric acid-reacting substances (TBARS) per milligram protein (Nakae et al. 1990).
Statistics. Inter-group differences in quantitative data for multiple groups were recognized to be significant, when p values smaller than 0.05 were obtained by the Dunnett multiple comparison test employed after one-way analysis of variance to determine the variation among the group means followed by the Bartlett's test to determine the homogeniety of variance.

[2] = system: rat liver microsome peroxidation; settings: read-out: IC50, inhibition of rat liver microsome peroxidation; cited from earlier work

For `CC(C)(C)[N+]([O-])=Cc1ccccc1` [PBN, phenyl N-tert-butyl nitrone], the “nuclear DNA 8-OHdG content increased by CDAA diet feeding” value ([1]; all doses, CDAA diet 16 weeks) is given as “significantly inhibited”, the “TBARS level enhanced by CDAA feeding” value ([1]; high dose 0.090% only) is given as “significantly inhibited” and the pIC50 [2] is given as 2.30.
